{"source": "PubChem BioAssay (NCI)", "note": "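Where inhibition never reached the appropriate level, the endpoint shown equals the highest concentration tested. Otherwise, values were interpolated linearly from a five-concentration, 48-hour dose response in 96-well plates. TGI: total growth inhibition.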", "data": [{"system": "PC-3 prostate", "assay": "growth of human tumour cells (NCI), 48 h", "units": {"TGI": "µM"}, "values": [{"smiles": "CC(=O)c1c2c(c3ccccc3c1O)O[C@@H]1OCC[C@H]21", "TGI": "> 100"}, {"smiles": "C(=C(c1ccc(OC2CCCCO2)cc1)c1ccc(OC2CCCCO2)cc1)c1ccccc1", "note": "(stereo not given)", "TGI": 1.59}, {"smiles": "CC(=O)Oc1cccc2c1C(=O)CCCC2", "TGI": "> 100"}, {"smiles": "CCN(CC)C(=S)N/N=C/c1cc([N+](=O)[O-])ccc1O", "TGI": 78}, {"smiles": "Cc1ccc(NC(=O)c2ccc(OP(=O)(O)Nc3ccc(C)cc3)cc2)cc1", "TGI": "> 100"}, {"smiles": "Cc1ccnc(NS(=O)(=O)c2ccc(N=[N+]=[N-])cc2)n1", "TGI": "> 100"}, {"smiles": "COc1ccc(-c2[nH]c3c4c(nc5c(c24)C(=O)CC(C)(C)C5)CC(C)(C)C3)cc1", "TGI": 92.6}, {"smiles": "CCC(=O)NCC1CCCN2CCCCC12", "note": "(stereo not given)", "TGI": "> 100"}, {"smiles": "Cc1ccc(N(Cc2ccccc2)Cc2ccccc2)cc1", "TGI": "> 100"}, {"smiles": "Nc1nc(-c2ccccc2)nc2oc(-c3cccs3)nc12", "TGI": "> 100"}, {"smiles": "S=C(N/N=C(/c1ccccc1)c1ccccn1)N(Cc1ccccn1)Cc1ccccn1", "TGI": 1.78}, {"smiles": "Cn1c(=O)c2c(nc3n2CC(C(=O)O)N3)n(C)c1=O", "note": "(stereo not given)", "TGI": "> 100"}, {"smiles": "Cc1oc2c(cc(O)c3cc(O)ccc32)c2cccc1-2", "TGI": "> 100"}, {"smiles": "NC(N)=Nc1ccc(CC(N)NCC(=O)O)cc1", "note": "(stereo not given)", "TGI": "> 25"}, {"smiles": "COC(=O)C1=C(C(=O)OC)SC(=C2SCSC3=C2SC(C(=O)OC)=C(C(=O)OC)C32SC3=C(CCCC3)S2)S1", "TGI": "> 100"}, {"smiles": "COc1ccc(-n2c(C)nc3ccc(NC(=S)Nc4ccccc4)cc3c2=O)cc1", "TGI": "> 100"}, {"smiles": "O=C(NCc1ccccc1)c1n[nH][nH]c1=O", "TGI": "> 100"}, {"smiles": "CCOC(=O)N1CCN(Cc2cc(=O)n3ccc(C)cc3n2)CC1", "TGI": "> 100"}, {"smiles": "N#CC(NCc1cccc(CNC(C#N)c2ccccc2)c1)c1ccccc1", "note": "(stereo not given)", "TGI": "> 100"}]}, {"system": "SF-268 CNS", "assay": "growth of human tumour cells (NCI), 48 h", "units": {"TGI": "µM"}, "values": [{"smiles": "CC(=O)c1c2c(c3ccccc3c1O)O[C@@H]1OCC[C@H]21", "TGI": "> 100"}, {"smiles": "C(=C(c1ccc(OC2CCCCO2)cc1)c1ccc(OC2CCCCO2)cc1)c1ccccc1", "note": "(stereo not given)", "TGI": 5.31}, {"smiles": "CC(=O)Oc1cccc2c1C(=O)CCCC2", "TGI": "> 100"}, {"smiles": "CCN(CC)C(=S)N/N=C/c1cc([N+](=O)[O-])ccc1O", "TGI": 57.5}, {"smiles": "Cc1ccc(NC(=O)c2ccc(OP(=O)(O)Nc3ccc(C)cc3)cc2)cc1", "TGI": "> 100"}, {"smiles": "Cc1ccnc(NS(=O)(=O)c2ccc(N=[N+]=[N-])cc2)n1", "TGI": "> 100"}, {"smiles": "COc1ccc(-c2[nH]c3c4c(nc5c(c24)C(=O)CC(C)(C)C5)CC(C)(C)C3)cc1", "TGI": "> 100"}, {"smiles": "CCC(=O)NCC1CCCN2CCCCC12", "note": "(stereo not given)", "TGI": "> 100"}, {"smiles": "Cc1ccc(N(Cc2ccccc2)Cc2ccccc2)cc1", "TGI": "> 100"}, {"smiles": "Nc1nc(-c2ccccc2)nc2oc(-c3cccs3)nc12", "TGI": "> 100"}, {"smiles": "S=C(N/N=C(/c1ccccc1)c1ccccn1)N(Cc1ccccn1)Cc1ccccn1", "TGI": 4.84}, {"smiles": "Cn1c(=O)c2c(nc3n2CC(C(=O)O)N3)n(C)c1=O", "note": "(stereo not given)", "TGI": "> 100"}, {"smiles": "Cc1oc2c(cc(O)c3cc(O)ccc32)c2cccc1-2", "TGI": "> 100"}, {"smiles": "NC(N)=Nc1ccc(CC(N)NCC(=O)O)cc1", "note": "(stereo not given)", "TGI": "> 25"}, {"smiles": "COC(=O)C1=C(C(=O)OC)SC(=C2SCSC3=C2SC(C(=O)OC)=C(C(=O)OC)C32SC3=C(CCCC3)S2)S1", "TGI": "> 100"}, {"smiles": "COc1ccc(-n2c(C)nc3ccc(NC(=S)Nc4ccccc4)cc3c2=O)cc1", "TGI": "> 100"}, {"smiles": "O=C(NCc1ccccc1)c1n[nH][nH]c1=O", "TGI": "> 100"}, {"smiles": "CCOC(=O)N1CCN(Cc2cc(=O)n3ccc(C)cc3n2)CC1", "TGI": "> 100"}, {"smiles": "N#CC(NCc1cccc(CNC(C#N)c2ccccc2)c1)c1ccccc1", "note": "(stereo not given)", "TGI": "> 100"}]}, {"system": "SK-MEL-28 melanoma", "assay": "growth of human tumour cells (NCI), 48 h", "units": {"TGI": "µM"}, "values": [{"smiles": "CC(=O)c1c2c(c3ccccc3c1O)O[C@@H]1OCC[C@H]21", "TGI": "> 100"}, {"smiles": "C(=C(c1ccc(OC2CCCCO2)cc1)c1ccc(OC2CCCCO2)cc1)c1ccccc1", "note": "(stereo not given)", "TGI": 2.41}, {"smiles": "CC(=O)Oc1cccc2c1C(=O)CCCC2", "TGI": "> 100"}, {"smiles": "CCN(CC)C(=S)N/N=C/c1cc([N+](=O)[O-])ccc1O", "TGI": "> 100"}, {"smiles": "Cc1ccc(NC(=O)c2ccc(OP(=O)(O)Nc3ccc(C)cc3)cc2)cc1", "TGI": "> 100"}, {"smiles": "Cc1ccnc(NS(=O)(=O)c2ccc(N=[N+]=[N-])cc2)n1", "TGI": "> 100"}, {"smiles": "COc1ccc(-c2[nH]c3c4c(nc5c(c24)C(=O)CC(C)(C)C5)CC(C)(C)C3)cc1", "TGI": "> 100"}, {"smiles": "CCC(=O)NCC1CCCN2CCCCC12", "note": "(stereo not given)", "TGI": "> 100"}, {"smiles": "Cc1ccc(N(Cc2ccccc2)Cc2ccccc2)cc1", "TGI": "> 100"}, {"smiles": "Nc1nc(-c2ccccc2)nc2oc(-c3cccs3)nc12", "TGI": "> 100"}, {"smiles": "S=C(N/N=C(/c1ccccc1)c1ccccn1)N(Cc1ccccn1)Cc1ccccn1", "TGI": 5.45}, {"smiles": "Cn1c(=O)c2c(nc3n2CC(C(=O)O)N3)n(C)c1=O", "note": "(stereo not given)", "TGI": "> 100"}, {"smiles": "Cc1oc2c(cc(O)c3cc(O)ccc32)c2cccc1-2", "TGI": "> 100"}, {"smiles": "NC(N)=Nc1ccc(CC(N)NCC(=O)O)cc1", "note": "(stereo not given)", "TGI": "> 25"}, {"smiles": "COC(=O)C1=C(C(=O)OC)SC(=C2SCSC3=C2SC(C(=O)OC)=C(C(=O)OC)C32SC3=C(CCCC3)S2)S1", "TGI": "> 100"}, {"smiles": "COc1ccc(-n2c(C)nc3ccc(NC(=S)Nc4ccccc4)cc3c2=O)cc1", "TGI": "> 100"}, {"smiles": "O=C(NCc1ccccc1)c1n[nH][nH]c1=O", "TGI": "> 100"}, {"smiles": "CCOC(=O)N1CCN(Cc2cc(=O)n3ccc(C)cc3n2)CC1", "TGI": "> 100"}, {"smiles": "N#CC(NCc1cccc(CNC(C#N)c2ccccc2)c1)c1ccccc1", "note": "(stereo not given)", "TGI": 33.8}]}, {"system": "SNB-75 CNS", "assay": "growth of human tumour cells (NCI), 48 h", "units": {"TGI": "µM"}, "values": [{"smiles": "CC(=O)c1c2c(c3ccccc3c1O)O[C@@H]1OCC[C@H]21", "TGI": 34.2}, {"smiles": "C(=C(c1ccc(OC2CCCCO2)cc1)c1ccc(OC2CCCCO2)cc1)c1ccccc1", "note": "(stereo not given)", "TGI": 2.13}, {"smiles": "CC(=O)Oc1cccc2c1C(=O)CCCC2", "TGI": 4.78}, {"smiles": "CCN(CC)C(=S)N/N=C/c1cc([N+](=O)[O-])ccc1O", "TGI": 72.7}, {"smiles": "Cc1ccc(NC(=O)c2ccc(OP(=O)(O)Nc3ccc(C)cc3)cc2)cc1", "TGI": "> 100"}, {"smiles": "Cc1ccnc(NS(=O)(=O)c2ccc(N=[N+]=[N-])cc2)n1", "TGI": "> 100"}, {"smiles": "COc1ccc(-c2[nH]c3c4c(nc5c(c24)C(=O)CC(C)(C)C5)CC(C)(C)C3)cc1", "TGI": "> 100"}, {"smiles": "CCC(=O)NCC1CCCN2CCCCC12", "note": "(stereo not given)", "TGI": "> 100"}, {"smiles": "Cc1ccc(N(Cc2ccccc2)Cc2ccccc2)cc1", "TGI": "> 100"}, {"smiles": "Nc1nc(-c2ccccc2)nc2oc(-c3cccs3)nc12", "TGI": "> 100"}, {"smiles": "S=C(N/N=C(/c1ccccc1)c1ccccn1)N(Cc1ccccn1)Cc1ccccn1", "TGI": 2.24}, {"smiles": "Cn1c(=O)c2c(nc3n2CC(C(=O)O)N3)n(C)c1=O", "note": "(stereo not given)", "TGI": "> 100"}, {"smiles": "Cc1oc2c(cc(O)c3cc(O)ccc32)c2cccc1-2", "TGI": "> 100"}, {"smiles": "NC(N)=Nc1ccc(CC(N)NCC(=O)O)cc1", "note": "(stereo not given)", "TGI": "> 25"}, {"smiles": "COC(=O)C1=C(C(=O)OC)SC(=C2SCSC3=C2SC(C(=O)OC)=C(C(=O)OC)C32SC3=C(CCCC3)S2)S1", "TGI": 36.3}, {"smiles": "COc1ccc(-n2c(C)nc3ccc(NC(=S)Nc4ccccc4)cc3c2=O)cc1", "TGI": "> 100"}, {"smiles": "O=C(NCc1ccccc1)c1n[nH][nH]c1=O", "TGI": "> 100"}, {"smiles": "CCOC(=O)N1CCN(Cc2cc(=O)n3ccc(C)cc3n2)CC1", "TGI": "> 100"}, {"smiles": "N#CC(NCc1cccc(CNC(C#N)c2ccccc2)c1)c1ccccc1", "note": "(stereo not given)", "TGI": 87.6}]}, {"system": "UACC-62 melanoma", "assay": "growth of human tumour cells (NCI), 48 h", "units": {"TGI": "µM"}, "values": [{"smiles": "CC(=O)c1c2c(c3ccccc3c1O)O[C@@H]1OCC[C@H]21", "TGI": "> 100"}, {"smiles": "C(=C(c1ccc(OC2CCCCO2)cc1)c1ccc(OC2CCCCO2)cc1)c1ccccc1", "note": "(stereo not given)", "TGI": 1.98}, {"smiles": "CC(=O)Oc1cccc2c1C(=O)CCCC2", "TGI": "> 100"}, {"smiles": "CCN(CC)C(=S)N/N=C/c1cc([N+](=O)[O-])ccc1O", "TGI": 15.4}, {"smiles": "Cc1ccc(NC(=O)c2ccc(OP(=O)(O)Nc3ccc(C)cc3)cc2)cc1", "TGI": "> 100"}, {"smiles": "Cc1ccnc(NS(=O)(=O)c2ccc(N=[N+]=[N-])cc2)n1", "TGI": "> 100"}, {"smiles": "COc1ccc(-c2[nH]c3c4c(nc5c(c24)C(=O)CC(C)(C)C5)CC(C)(C)C3)cc1", "TGI": "> 100"}, {"smiles": "CCC(=O)NCC1CCCN2CCCCC12", "note": "(stereo not given)", "TGI": "> 100"}, {"smiles": "Cc1ccc(N(Cc2ccccc2)Cc2ccccc2)cc1", "TGI": "> 100"}, {"smiles": "Nc1nc(-c2ccccc2)nc2oc(-c3cccs3)nc12", "TGI": "> 100"}, {"smiles": "S=C(N/N=C(/c1ccccc1)c1ccccn1)N(Cc1ccccn1)Cc1ccccn1", "TGI": 2.21}, {"smiles": "Cn1c(=O)c2c(nc3n2CC(C(=O)O)N3)n(C)c1=O", "note": "(stereo not given)", "TGI": "> 100"}, {"smiles": "Cc1oc2c(cc(O)c3cc(O)ccc32)c2cccc1-2", "TGI": "> 100"}, {"smiles": "NC(N)=Nc1ccc(CC(N)NCC(=O)O)cc1", "note": "(stereo not given)", "TGI": "> 25"}, {"smiles": "COC(=O)C1=C(C(=O)OC)SC(=C2SCSC3=C2SC(C(=O)OC)=C(C(=O)OC)C32SC3=C(CCCC3)S2)S1", "TGI": "> 100"}, {"smiles": "COc1ccc(-n2c(C)nc3ccc(NC(=S)Nc4ccccc4)cc3c2=O)cc1", "TGI": "> 100"}, {"smiles": "O=C(NCc1ccccc1)c1n[nH][nH]c1=O", "TGI": "> 100"}, {"smiles": "CCOC(=O)N1CCN(Cc2cc(=O)n3ccc(C)cc3n2)CC1", "TGI": "> 100"}, {"smiles": "N#CC(NCc1cccc(CNC(C#N)c2ccccc2)c1)c1ccccc1", "note": "(stereo not given)", "TGI": "> 100"}]}]}
